According to PubChem BioAssay AID330 (DTP/NCI, 2004):
Values joined by “and” are separate entries in the source; they are usually repeats but may differ in a detail not shown here. Equal values may be shown once. Inconclusive results and toxic doses are left out. How the source made its calls: active means survival T/C of 150% or more; inactive means T/C below 125% in these data.

Test system: P388 leukemia ip, CD2F1 mice, survival T/C
Assay: NCI In Vivo Anticancer Drug Screen. Data for tumor model P388 Leukemia (intraperitoneal) in CD2F1 (CDF1) mice
Conditions: endpoint: median survival time, higher = longer survival
In short: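 Mice carrying the transplanted tumor received test compound or vehicle. Survival was recorded in each group, and the value is the treated-group measurement divided by that of the vehicle-treated control group.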

[1] = dose: 50.0 mg/kg/injection, schedule: Q01DX005 (ip), vehicle: saline with Tween-80
[2] = dose: 100.0 mg/kg/injection, schedule: Q01DX005 (ip), vehicle: saline with Tween-80
[3] = dose: 50.0 mg/kg/injection, schedule: Q01DX009 (ip), vehicle: saline with Tween-80
[4] = dose: 100.0 mg/kg/injection, schedule: Q01DX009 (ip), vehicle: saline with Tween-80
[5] = dose: 200.0 mg/kg/injection, schedule: Q01DX009 (ip), vehicle: saline with Tween-80

Measured: T/C

C=C1CCC(Br)C2(C)CCC(C(C)(C)O)CC12 (stereo not given)
inactive: dose: 2.0 mg/kg/injection, schedule: Q01DX009 (ip), vehicle: Klucel (hydroxypropylcellulose) (HPC) 100 % of control | dose: 4.0 mg/kg/injection, schedule: Q01DX009 (ip), vehicle: Klucel (hydroxypropylcellulose) (HPC) 100 % of control | dose: 8.0 mg/kg/injection, schedule: Q01DX009 (ip), vehicle: Klucel (hydroxypropylcellulose) (HPC) 98 % of control | dose: 16.0 mg/kg/injection, schedule: Q01DX009 (ip), vehicle: Klucel (hydroxypropylcellulose) (HPC) 99 % of control

CCOP(=O)(CC(=O)NC(C(N)=O)C(C)C)OCC (stereo not given)
inactive: [1] 101 % of control | [2] 104 % of control | dose: 200.0 mg/kg/injection, schedule: Q01DX005 (ip), vehicle: saline with Tween-80 105 % of control

CCC1(O)CC(OC2CC(N(C)C)C(OC3CC(O)C(OC4CC(O)C(O)C(C)O4)C(C)O3)C(C)O2)c2c(cc3c(c2O)C(=O)c2c(O)ccc(O)c2C3=O)C1C(=O)OC (stereo not given)
inactive: dose: 3.13 mg/kg/injection, schedule: Q04DX003 (ip), vehicle: Klucel (hydroxypropylcellulose) (HPC) 105 % of control | dose: 6.25 mg/kg/injection, schedule: Q04DX003 (ip), vehicle: Klucel (hydroxypropylcellulose) (HPC) 99 % of control | dose: 12.5 mg/kg/injection, schedule: Q04DX003 (ip), vehicle: Klucel (hydroxypropylcellulose) (HPC) 105 % of control | dose: 25.0 mg/kg/injection, schedule: Q04DX003 (ip), vehicle: Klucel (hydroxypropylcellulose) (HPC) 118 % of control

C1=C(CC2=C[P+](c3ccccc3)(c3ccccc3)C=C(c3ccccc3)O2)OC(c2ccccc2)=C[P+]1(c1ccccc1)c1ccccc1
inactive: dose: 0.75 mg/kg/injection, schedule: Q01DX005 (ip), vehicle: saline with Tween-80 115 % of control | dose: 3.0 mg/kg/injection, schedule: Q01DX005 (ip), vehicle: saline 124 % of control

CCOc1ccc(NC(=O)C2=C(C)NC(C)=C(C(=O)Nc3ccc(OCC)cc3)C2c2cccc([N+](=O)[O-])c2)cc1
inactive: dose: 15.0 mg/kg/injection, schedule: Q01DX005 (ip), vehicle: Klucel (hydroxypropylcellulose) (HPC) 98 % of control | dose: 30.0 mg/kg/injection, schedule: Q01DX005 (ip), vehicle: Klucel (hydroxypropylcellulose) (HPC) 104 % of control | dose: 60.0 mg/kg/injection, schedule: Q01DX005 (ip), vehicle: Klucel (hydroxypropylcellulose) (HPC) 92 % of control and 97 % of control

CN1C2CCC1C(O)C(c1ccc(Cl)cc1)C2 (stereo not given)
inactive: dose: 25.0 mg/kg/injection, schedule: Q01DX005 (ip), vehicle: Klucel (hydroxypropylcellulose) (HPC) 100 % of control | dose: 50.0 mg/kg/injection, schedule: Q01DX005 (ip), vehicle: Klucel (hydroxypropylcellulose) (HPC) 100 % of control | dose: 100.0 mg/kg/injection, schedule: Q01DX005 (ip), vehicle: Klucel (hydroxypropylcellulose) (HPC) 91 % of control

C=C1CC1CC(N)C(=O)O (stereo not given)
inactive: dose: 1.25 mg/kg/injection, schedule: Q01DX009 (ip), vehicle: saline 108 % of control | dose: 2.5 mg/kg/injection, schedule: Q01DX009 (ip), vehicle: saline 96 % of control | dose: 5.0 mg/kg/injection, schedule: Q01DX009 (ip), vehicle: saline 100 % of control

COc1cc2c(c(OC)c1OC)-c1cc3c(cc1C(OC1OC4COC(C)OC4C(O)C1O)C1COC(=O)C1C2)OCO3 (stereo not given)
inactive: dose: 17.5 mg/kg/injection, schedule: Q01DX005 (ip), vehicle: Klucel (hydroxypropylcellulose) (HPC) 103 % of control | dose: 35.0 mg/kg/injection, schedule: Q01DX005 (ip), vehicle: Klucel (hydroxypropylcellulose) (HPC) 101 % of control | dose: 70.0 mg/kg/injection, schedule: Q01DX005 (ip), vehicle: Klucel (hydroxypropylcellulose) (HPC) 119 % of control | dose: 140.0 mg/kg/injection, schedule: Q01DX005 (ip), vehicle: Klucel (hydroxypropylcellulose) (HPC) 119 % of control

C=CCOC(=O)OCCCO
inactive: dose: 60.0 mg/kg/injection, schedule: Q01DX005 (ip), vehicle: saline 105 % of control | dose: 120.0 mg/kg/injection, schedule: Q01DX005 (ip), vehicle: saline 99 % of control

CC(C)CC(=O)C1C(c2ccccc2)CC(=O)C(C(C)C)C1c1ccccc1 (stereo not given)
inactive: [1] 92 % of control | [2] 92 % of control

CCC[n+]1noc(N)n1
inactive: dose: 3.13 mg/kg/injection, schedule: Q01DX009 (ip), vehicle: water 97 % of control | dose: 6.25 mg/kg/injection, schedule: Q01DX009 (ip), vehicle: water 99 % of control | dose: 12.5 mg/kg/injection, schedule: Q01DX009 (ip), vehicle: water 90 % of control | dose: 25.0 mg/kg/injection, schedule: Q01DX009 (ip), vehicle: water 97 % of control | dose: 50.0 mg/kg/injection, schedule: Q01DX009 (ip), vehicle: water 106 % of control | dose: 100.0 mg/kg/injection, schedule: Q01DX009 (ip), vehicle: water 106 % of control

CCCCN1C(=O)C(=O)N(CCc2ccc(OC)c(OC)c2)C1=O
inactive: dose: 50.0 mg/kg/injection, schedule: Q01DX009 (ip), vehicle: Klucel (hydroxypropylcellulose) (HPC) 91 % of control | dose: 100.0 mg/kg/injection, schedule: Q01DX009 (ip), vehicle: Klucel (hydroxypropylcellulose) (HPC) 86 % of control | dose: 200.0 mg/kg/injection, schedule: Q01DX009 (ip), vehicle: Klucel (hydroxypropylcellulose) (HPC) 91 % of control

O=c1[nH]c(=O)c2nc(-c3cccc([N+](=O)[O-])c3)cnc2[nH]1
inactive: dose: 100.0 mg/kg/injection, schedule: Q04DX002 (ip), vehicle: saline 101 % of control | dose: 200.0 mg/kg/injection, schedule: Q04DX002 (ip), vehicle: saline 113 % of control | dose: 400.0 mg/kg/injection, schedule: Q04DX002 (ip), vehicle: saline 106 % of control

CCC[CH2][Sn]([CH2]CCC)([N]=C=S)[N]=C=S
inactive: dose: 0.78 mg/kg/injection, schedule: Q01DX009 (ip), vehicle: saline 108 % of control | dose: 1.56 mg/kg/injection, schedule: Q01DX009 (ip), vehicle: saline 100 % of control | dose: 3.12 mg/kg/injection, schedule: Q01DX009 (ip), vehicle: saline 100 % of control

O=C(O)CCCOc1ccc(Cl)cc1Cl
inactive: dose: 100.0 mg/kg/injection, schedule: Q04DX003 (ip), vehicle: saline 109 % of control | dose: 200.0 mg/kg/injection, schedule: Q04DX003 (ip), vehicle: saline 100 % of control | dose: 400.0 mg/kg/injection, schedule: Q04DX003 (ip), vehicle: saline 100 % of control

NCc1nnn(Cc2ccccc2)c1N
inactive: [3] 90 % of control | [4] 92 % of control | [5] 92 % of control

C=C1C(=O)OC2CC3(C)OC3CC/C(C)=C/C(OC(C)=O)C12 (stereo not given)
inactive: dose: 12.5 mg/kg/injection, schedule: Q01DX005 (ip), vehicle: saline with Tween-80 111 % of control | dose: 25.0 mg/kg/injection, schedule: Q01DX005 (ip), vehicle: saline with Tween-80 111 % of control | [1] 111 % of control and 112 % of control

CC(C)(C)OC(=O)NNS(=O)(=O)CCC(NC(=O)OCc1ccccc1)C(=O)OCc1ccccc1 (stereo not given)
inactive: dose: 12.5 mg/kg/injection, schedule: Q01DX009 (ip), vehicle: other 100 % of control | dose: 25.0 mg/kg/injection, schedule: Q01DX009 (ip), vehicle: other 97 % of control | dose: 50.0 mg/kg/injection, schedule: Q01DX009 (ip), vehicle: other 92 % of control | dose: 100.0 mg/kg/injection, schedule: Q01DX009 (ip), vehicle: other 88 % of control | dose: 200.0 mg/kg/injection, schedule: Q01DX009 (ip), vehicle: other 90 % of control

O=C1CC2(CCCc3sccc32)C(=O)N1 (stereo not given)
inactive: dose: 60.0 mg/kg/injection, schedule: Q01DX005 (ip), vehicle: saline with Tween-80 101 % of control | dose: 120.0 mg/kg/injection, schedule: Q01DX005 (ip), vehicle: saline with Tween-80 94 % of control | dose: 240.0 mg/kg/injection, schedule: Q01DX005 (ip), vehicle: saline with Tween-80 92 % of control

O=C(Nc1cccc2ccccc12)N1c2ccccc2SC12CCCC2
inactive: dose: 1.56 mg/kg/injection, schedule: Q01DX009 (ip), vehicle: saline with Tween-80 104 % of control | dose: 3.13 mg/kg/injection, schedule: Q01DX009 (ip), vehicle: saline with Tween-80 100 % of control | dose: 6.25 mg/kg/injection, schedule: Q01DX009 (ip), vehicle: saline with Tween-80 99 % of control and 94 % of control

Cc1cc2ccccc2c2nncn12
inactive: [3] 103 % of control | [4] 103 % of control

O=C(O)C(Cc1ccc(O)cc1)NC(=O)C(F)(F)F (stereo not given)
inactive: [3] 98 % of control and 100 % of control | [4] 93 % of control | [5] 90 % of control

C(=C\c1cccs1)/c1ccnnc1
inactive: dose: 25.0 mg/kg/injection, schedule: Q01DX009 (ip), vehicle: saline 101 % of control | dose: 50.0 mg/kg/injection, schedule: Q01DX009 (ip), vehicle: saline 99 % of control | dose: 100.0 mg/kg/injection, schedule: Q01DX009 (ip), vehicle: saline 86 % of control and 96 % of control
